This note sets out measurements from ChEMBL document CHEMBL1201862, “PubChem BioAssay data set” (2004).

Structures are written as SMILES.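 Five compound concentrations were applied to cells in 96-well plates for 48 hours; endpoints were derived by simple linear interpolation of the resulting dose-response curve. GI50 is the concentration that inhibits growth by half.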 Active and inactive are the calls of the source. Cut-off read from the data, not from the text of the source: active = GI50 up to about 1.1 µM and inactive = higher.

What all share (assay): DTP human tumour cell line panel, 48 h
In experiment [1] the test system is ACHN.
For experiment [2], the system named is BT-549.
Experiment [3] relates to CCRF-CEM.
Experiment [4] has as its system HCT-15.
Experiment [5] relates to HT-29.
The test system of experiment [6] is IGROV-1.
Experiment [7] concerns K562.
The subject of experiment [8] is NCI-H226.
The test system of experiment [9] is NCI-H522.
The subject of experiment [10] is OVCAR-3.
Experiment [11] concerns OVCAR-4.
The test system of experiment [12] is OVCAR-8.
Experiment [13] relates to PC-3.
Experiment [14] relates to RXF 393.
Experiment [15] deals with SF-539.
Experiment [16] deals with SNB-19.
Experiment [17] relates to SNB-75.
In experiment [18] the test system is SW-620.
For experiment [19], the system named is TK-10.
The test system of experiment [20] is UACC-257.

Consider `CCN(CC)c1ccc(/C=C(\C#N)c2nc(N)nc(N3N=C(C)CC3(C)C)n2)cc1`, for which the GI50 (in general, the concentration at which growth is held to half of that of the control) in [1] was 14.7 µM (inactive); in experiment [2], 47.4 µM (inactive); in experiment [3], 19.1 µM (inactive); in experiment [4], over 59.3 µM; in [5] it was 18.8 µM (inactive); in experiment [6] it was 7.82 µM (inactive). The GI50 in experiment [7] is > 38.1 µM (inactive); in experiment [8] it was 2.9 µM (inactive); in experiment [9] it was 16.9 µM (inactive); in [10] it was 17.5 µM (inactive); in experiment [11], 11.6 µM (inactive); in experiment [12] it was 10.6 µM (inactive). For the same compound, the GI50 is 37.2 µM (inactive) in experiment [13]; 8.93 µM (inactive) in experiment [14]; 6.89 µM (inactive) in experiment [15]; 17.9 µM (inactive) in experiment [16]; 10 µM (inactive) in experiment [17]; 55.6 µM (inactive) in experiment [18]. The GI50 was 14.8 µM (inactive) in experiment [19] and 45.2 µM (inactive) in [20].
Take `O=C(c1ccccc1)c1nc2ccc(Cl)cc2cc1C(Br)Br`: the 50% growth inhibitory concentration (GI50) in experiment [1] is 0.263 µM (active); in [2] it was 0.144 µM (active); in experiment [3], 0.395 µM (active); in experiment [4], 0.31 µM; in experiment [5] it was 0.197 µM (active); in experiment [6], 0.735 µM (active). Besides, the GI50 in experiment [7] was 0.244 µM (active); in experiment [8] it was 1.68 µM (inactive); in experiment [9] it was 1.82 µM (inactive); in experiment [10], 0.326 µM (active); in experiment [11], 0.407 µM (active); in [12], 0.242 µM (active). Besides, the GI50 in [13] is 0.225 µM (active); in experiment [14], 0.216 µM (active); in experiment [15] it was 0.246 µM (active); in [16], 0.425 µM (active); in experiment [17], 0.278 µM (active); in [18], 0.185 µM (active). Besides, the results for the GI50 in experiment [19] and in experiment [20] were 0.687 µM (active) and 0.525 µM (active), respectively.
Regarding `CCOC(=O)C(=O)/C(=C/N1C(=O)CC(=O)NC1=S)C(=O)OCC`, the GI50 in experiment [1] is > 100 µM (inactive); in experiment [2], > 100 µM (inactive); in experiment [3], > 100 µM (inactive); in [4], over 100 µM; in experiment [5], > 100 µM (inactive); in experiment [6], > 100 µM (inactive). The GI50 in experiment [7] was > 100 µM (inactive); in experiment [8], > 100 µM (inactive); in experiment [9], > 100 µM (inactive); in experiment [10], 0.719 µM (active); in experiment [11], > 100 µM (inactive); in [12], > 100 µM (inactive). In addition, the GI50 in [13] was > 100 µM (inactive); in experiment [14], > 100 µM (inactive); in experiment [15] it was > 100 µM (inactive); in experiment [16], > 100 µM (inactive); in experiment [17], 10.3 µM (inactive); in [18], > 100 µM (inactive). Besides, the GI50 in experiment [20] was > 100 µM (inactive).
As for `O=c1cc(/N=N/c2ccc(O)cc2)[nH]c(=O)[nH]1`, the GI50 in [1] was > 100 µM (inactive); in experiment [2], > 100 µM (inactive); in experiment [4], over 100 µM; in [5] it was 67.8 µM (inactive); in experiment [6], > 100 µM (inactive); in experiment [7], > 100 µM (inactive). The GI50 in experiment [8] was > 100 µM (inactive); in experiment [9] it was 31.7 µM (inactive); in experiment [10], 40.7 µM (inactive); in experiment [11], > 100 µM (inactive); in experiment [12], > 100 µM (inactive); in experiment [13], > 100 µM (inactive). For the same compound, the GI50 is 42.1 µM (inactive) in experiment [14]; 53.5 µM (inactive) in experiment [15]; > 100 µM (inactive) in experiment [16]; 26.6 µM (inactive) in [17]; > 100 µM (inactive) in [18]; 99.3 µM (inactive) in [19]. In addition, the GI50 in [20] was 73.1 µM (inactive).
In the case of `Cc1cc2c(O)c(c1)CN(CC(=O)O)Cc1cc(C)cc(c1O)CN(CC(=O)O)Cc1cc(C)cc(c1O)CN(CC(=O)O)C2`, the GI50 was > 100 µM (inactive) in experiment [1]; > 100 µM (inactive) in experiment [2]; > 100 µM (inactive) in experiment [3]; over 100 µM in experiment [4]; > 100 µM (inactive) in experiment [5]; > 100 µM (inactive) in experiment [7]. Further, the GI50 in experiment [8], in [9], in experiment [10], in [11], in experiment [12] and in [13] was > 100 µM (inactive) in each case. The GI50 in experiment [14], in experiment [15], in experiment [16], in experiment [17], in experiment [18] and in experiment [19] was > 100 µM (inactive) in each case. Further, the GI50 in [20] was > 100 µM (inactive).
For `O=C(O)COc1c(Cl)cc(Cl)c(C(c2c(Cl)cc(Cl)c(OCC(=O)O)c2Cl)C(Cl)(Cl)Cl)c1Cl`, the GI50 in [1] is 33.7 µM (inactive); in experiment [2] it was 23.1 µM (inactive); in experiment [4], 26.4 µM; in [5] it was 29 µM (inactive); in experiment [6], 32.8 µM (inactive); in experiment [7], 33.3 µM (inactive). For the same compound, the GI50 in experiment [8] was 21.4 µM (inactive); in experiment [9] it was 33.8 µM (inactive); in experiment [11] it was 30.8 µM (inactive); in [12], 43.8 µM (inactive); in experiment [13], 38 µM (inactive); in [14] it was 30.9 µM (inactive). Also, the GI50 was 29.2 µM (inactive) in experiment [15]; > 100 µM (inactive) in experiment [16]; 29.6 µM (inactive) in [17]; 29.8 µM (inactive) in experiment [18]; 31.9 µM (inactive) in experiment [19]; 26.2 µM (inactive) in experiment [20].
Turning to `O=c1ccn(CC2(CO)CCCC2)c(=O)[nH]1`, the GI50 in experiment [1] is > 100 µM (inactive); in experiment [2] it was > 100 µM (inactive); in experiment [3], > 100 µM (inactive); in [4] it was over 100 µM; in [5], > 100 µM (inactive); in experiment [6], > 100 µM (inactive). Besides, the GI50 in [7], in experiment [8], in [9], in [10], in experiment [11] and in experiment [12] was > 100 µM (inactive) in each case. Moreover, the GI50 in experiment [13], in experiment [14], in experiment [15], in [17], in [18] and in experiment [19] was > 100 µM (inactive) throughout. In experiment [20], the GI50 is > 100 µM (inactive).
Take `C[C@H](CCC(=O)O)[C@H]1CC[C@H]2[C@@H]3[C@@H](O)C[C@@H]4C[C@H](O)CC[C@]4(C)[C@H]3CC[C@]12C` [URSODIOL]: the GI50 in experiment [1] was > 100 µM (inactive); in experiment [2], > 100 µM (inactive); in experiment [3], > 100 µM (inactive); in experiment [4], over 100 µM; in [5], > 100 µM (inactive); in experiment [6], > 100 µM (inactive). Besides, the GI50 in experiment [7] was 72.8 µM (inactive); in experiment [8], > 100 µM (inactive); in experiment [9], > 100 µM (inactive); in experiment [11] it was > 100 µM (inactive); in experiment [12] it was > 100 µM (inactive); in experiment [13] it was > 100 µM (inactive). Besides, the GI50 was > 100 µM (inactive) in experiment [14]; > 100 µM (inactive) in experiment [15]; > 100 µM (inactive) in [16]; 99.1 µM (inactive) in experiment [17]; > 100 µM (inactive) in experiment [18]; > 100 µM (inactive) in [19]. The GI50 in experiment [20] is > 100 µM (inactive).
In the case of `O=[N+]([O-])c1ccc(/C=C(/c2ccc([N+](=O)[O-])o2)S(=O)(=O)c2ccccc2)o1`, the GI50 was 2.84 µM (inactive) in experiment [1]; 19.9 µM (inactive) in [2]; 11.6 µM in [4]; 4.49 µM (inactive) in experiment [5]; 16.6 µM (inactive) in experiment [6]; 2.96 µM (inactive) in [7]. Moreover, the GI50 in [8] is 1.42 µM (inactive); in [9], 1.93 µM (inactive); in experiment [10], 6.14 µM (inactive); in [11], 4.22 µM (inactive); in [12], 4.49 µM (inactive); in experiment [13], 16.4 µM (inactive). For the same compound, the GI50 in [14] is 25.1 µM (inactive); in experiment [15], 18.1 µM (inactive); in experiment [16], 20.1 µM (inactive); in experiment [17] it was 19 µM (inactive); in [18], 2.26 µM (inactive); in experiment [19], 4.1 µM (inactive). Moreover, the GI50 in [20] was 1.84 µM (inactive).
As to `CC(=O)O[C@H]1CC[C@@]2(C)C(=CC[C@@H]3[C@@H]2CC[C@]2(C)C(=N/O)/C(=C/c4ccc([N+](=O)[O-])cc4)C[C@@H]32)C1`, the GI50 in experiment [1] is 6.22 µM (inactive); in [2] it was 2.25 µM (inactive); in experiment [3], 3.76 µM (inactive); in experiment [4], 4.6 µM; in experiment [5], 5.43 µM (inactive); in experiment [6] it was 12.8 µM (inactive). The GI50 in experiment [7] is 3.1 µM (inactive); in [8], 7.66 µM (inactive); in [9], 2.08 µM (inactive); in experiment [10], 2.47 µM (inactive); in experiment [11], 17 µM (inactive); in experiment [13] it was 2.72 µM (inactive). The GI50 in experiment [14] was 32.4 µM (inactive); in [15], 29.3 µM (inactive); in [16], 2.94 µM (inactive); in experiment [17] it was 10 µM (inactive); in experiment [18] it was 6.24 µM (inactive); in [19] it was 8.43 µM (inactive). Also, the GI50 in experiment [20] was 0.0304 µM (active).
